{"source": "patent US20030144174A1", "about": "“METHODS FOR IDENTIFYING COMPOUNDS USEFUL FOR THE REGULATION OF BODY WEIGHT AND ASSOCIATED CONDITIONS” (priority 1998, published 2003)", "molecules": {"B1": {"name": "leptin: recombinant mouse leptin, product of the ob gene; Example 5 material provided through the NHPP (protein, UniProt P41160 22-167, looked up)", "Leptin": "VPIQKVQDDTKTLIKTIVTRINDISHTQSVSAKQRVTGLDFIPGLHPILSLSKMDQTLAVYQQVLTSLPSQNVLQIANDLENLRDLLHLLAFSKSCSLPQTSGLQKPESLDGVLEASLYSTEVVALSRLQGSLQDILQQLDVSPEC"}}, "type_in_all_cases": "in vivo, mouse", "key": {"[1]": {"tested_on": "POMC homozygous mutant female mice", "assay": "Daily intraperitoneal α-MSH analog in POMC homozygous mutant mice: body weight, food intake, coat (Example 2)", "procedure": "(§1) To test initially for the effect of peripheral melanocortins on weight change, we selected the stable agonist [Ac-Cys^4, D-Phe^7, Cys^10] α-MSH (4-13) (described in Cody et al., 1985, J. Med. Chem. 28, 583-588; incorporated herein by reference in its entirety). Briefly, [Ac-Cys^4,D-Phe^7, Cys^10] α-MSH (4-13) amide, having the cysteines connected by a disulfide bridge, was obtained from Peninsula Laboratories, CA. Lyophilized powder was dissolved in water at 1 mg/ml, which was diluted in PBS to 10 μg/mL. During the experiments, mice were maintained on a normal 12 h/12 h light/dark cycle with food and water ad libitum. Mice were fed standard laboratory rodent diet (#5001).\n(§2) In order to see whether the α-MSH analog has an effect on food intake, we compared weight change and food intake in these mice for one week (see bars in FIGS. 4A and 4B) under MSH analog treatment and after MSH analog treatment was stopped (FIGS. 4C and 4D). During one week under MSH analog treatment mutant mice lost 0.5 g, while wildtype littermates gained 0.3 g; the food intake during this time was equivalent in both groups (20.7 g in wildtypes, and 22.7 g in mutants).\nAn effect of MSH could also be seen on coat pigmentation. […] Yellow coat pigmentation gradually reappeared after MSH treatment was terminated (data not shown)."}, "wildtype female mice": {"tested_on": "wildtype female mice", "assay": "Daily intraperitoneal α-MSH analog in wildtype littermates: body weight, food intake (Example 2)", "details": "for weight loss in wildtype littermates: 1 microgram i.p. daily, 16-day treatment", "procedure": "as §1, §2"}, "POMC null mutant mice": {"tested_on": "POMC null mutant mice", "assay": "Weight change and food intake by diet and MSH analog treatment, POMC null mutant mice (Example 3, Table 1)", "procedure": "(§3) P values were determined by ANOVA. If the major component of weight regulation through the melanocortinergic pathway was the regulation of feeding behavior, the observed changes in body weight in POMC null mutant mice should be paralleled by a similar pattern in food uptake. This, however, was not observed (FIGS. 5B and 5D and Table 1)."}, "wildtype mice": {"tested_on": "wildtype mice", "assay": "Weight change and food intake by diet and MSH analog treatment, wildtype mice (Example 3, Table 1)", "details": "MSH analog i.p. 1 or 2 μg once daily", "procedure": "as §3"}, "obese lep^ob/ob mice": {"tested_on": "obese lep^ob/ob mice", "assay": "Total weight change in obese lep ob/ob mice given leptin, α-MSH analog or both (Example 4, FIG. 6)", "details": "3 μg of each compound i.p. once daily; lep ob/ob mice aged 2 months; compared to untreated controls", "procedure": "To assess a more general effect of peripheral melanocortin on adipocytes, another genetic form of obesity, in lep^ob/ob mice, was treated with the α-MSH analog. In this experiment, the mice received leptin or the α-MSH analog alone, and in combination. Briefly, obese lep^ob/ob mice at age 2 months (2 per group) received daily either: (1) 3 μg of α-MSH analog (described in Examples 2 and 3 above); (2) 3 μg of recombinant mouse leptin; (3) 3 μg of α-MSH analog and 3 μg of recombinant mouse leptin in combination; or (4) saline. The compounds were delivered intraperitoneally once daily, 1-2 hours before the onset of darkness."}, "ob/ob mutants [2]": {"tested_on": "ob/ob mutants", "assay": "Weight gain and food intake in ob/ob mutants given leptin, MSH analog or both (Example 5, FIGS. 8 and 9)", "procedure": "Leptin deficient (ob/ob) mutants show both hyperphagia and “increased metabolic efficiency” as witnessed by their ability to gain weight even when pair-fed with normal congenic controls. To determine the effects of leptin and MSH on food intake and weight gain, four sets of ob/ob mutants were treated with leptin, an MSH analog, both together, or vehicle alone. The MSH analog [Ac-Cys^4, D-Phe^7, Cys^10] α-MSH (4-13) was purchased from Peninsula Laboratories (Belmont, Calif.). Mice were treated with daily injections of 7 micrograms of each, both or neither."}, "ob/ob mutants [3]": {"tested_on": "ob/ob mutants", "assay": "Core temperature of ob/ob mutants exposed to 4° C. (Example 5, FIG. 10)", "details": "7 micrograms; 5 hours without food, then 4° C. for 65 minutes; versus vehicle treated ob/ob", "procedure": "In 1977, the decreased ability of ob/ob mutants to maintain body temperature at 4° C. was noted. This preceded the onset of obesity in these mice. In view of the evidence that MSH regulates adipocyte metabolism, the present inventors hypothesized that the low levels of circulating MSH in leptin deficient (ob/ob) mutants was responsible for the impaired thermal regulation. To test this, ob/ob mutants were injected with 7 micrograms of MSH analog or vehicle only as described above. The mice were left without food for 5 hours and then exposed to 4° C. for 65 minutes. Their core temperatures were measured periodically by transfer to a coldroom (4° C.) where core temperatures were measured using a digital thermometer fitted with a rectal probe (Atkins Technical Inc., Gainesville, Fla.). […] As the mice had no opportunity to eat between injection of the MSH analog and the cold challenge, food intake cannot be responsible for the altered thermal regulation."}, "[4]": {"tested_on": "ob/ob mutant mice (C57BL/6J-Lep^ob)", "assay": "Circulating MSH levels by RIA in ob/ob mutants treated with leptin (Example 5, FIG. 7)", "details": "leptin 7 microgram/day i.p., two hours after the tenth daily injection", "procedure": "To test the inductive ability of leptin on circulating MSH levels, ob/ob mutants (ob/ob mutant mice (C57BL/6J-Lep^ob) and congenic controls were purchased from the Jackson Laboratory, Bar Harbor, Me.) were treated with leptin (7 microgram/day) or with vehicle alone (Murine recombinant leptin was kindly provided by Dr. A. F. Parlow through the National Hormone and Pituitary Program (NHPP); hormones were diluted to 70 micrograms per milliliter in PBS; mice were injected intraperitoneally with 0.1 mL). Two hours after the tenth daily injection, blood samples were drawn from the retro-orbital sinus and analyzed for MSH levels by RIA following the manufacturer's instructions (Peninsula Laboratories, Belmont, Calif.)."}, "[5]": {"details": "both genotypes on standard diet & MSH analog treatment"}, "[6]": {"details": "mutant mice, MSH analog i.p. 1 or 2 μg once daily"}, "[7]": {"details": "daily injections of 7 micrograms, ob/ob mutants"}}, "note": "Entries after “also recorded” stand apart in the source; their conditions may differ."}
{"molecule": "[Ac-Cys^4, D-Phe^7, Cys^10] α-MSH (4-13) [MSH analog]", "values": [{"measurement": "weight loss by 2 weeks", "setting": "[1]; 1 microgram (~1 nmol) i.p. daily, mutant female mice, listed as MSH-agonist", "value": "46 % of excess weight"}, {"measurement": "weight loss by 2 weeks", "setting": "[1]; 1 microgram (~1 nmol) i.p. daily, mutant female mice, listed as stable α-MSH agonist", "value": "over 40 % of excess weight"}, {"measurement": "weight loss within one week", "setting": "[1]; 1 microgram (~1 nmol) i.p. daily, mutant female mice, within one week", "value": "38 % of excess weight"}, {"measurement": "time until mutant mice started to gain weight after MSH injections were stopped", "setting": "[1]; after the 16-day treatment ended", "value": "about 10 days"}, {"measurement": "coat pigmentation", "setting": "[1]; mice treated for two weeks", "value": "lost their yellowish tinge"}, {"measurement": "weight lost during one week under MSH analog treatment", "setting": "[1]; mutant mice, second week of treatment", "value": 0.5, "unit": "g"}, {"measurement": "weight gained in one week after MSH analog treatment had been stopped for two weeks", "setting": "[1]; mutant mice, third week after termination", "value": 1.7, "unit": "g"}, {"measurement": "food intake during one week under MSH analog treatment", "setting": "[1]; mutants, second week of treatment", "value": 22.7, "unit": "g"}, {"measurement": "food intake in one week after MSH analog treatment had been stopped for two weeks", "setting": "[1]; mutants, third week after termination", "value": 35.7, "unit": "g"}, {"measurement": "weight loss in wildtype littermates", "setting": "wildtype female mice; listed as MSH-agonist", "value": "no significant weight loss"}, {"measurement": "weight loss in wildtype littermates", "setting": "wildtype female mice; listed as stable α-MSH agonist", "value": "did not lose significant weight"}, {"measurement": "weight gained during one week under MSH analog treatment", "setting": "wildtype female mice; wildtype littermates, second week of treatment", "value": 0.3, "unit": "g"}, {"measurement": "weight gain in one week after MSH analog treatment had been stopped for two weeks", "setting": "wildtype female mice; wildtype littermates, third week after termination", "value": 0.3, "unit": "g"}, {"measurement": "food intake during one week under MSH analog treatment", "setting": "wildtype female mice; wildtypes, second week of treatment", "value": 20.7, "unit": "g"}, {"measurement": "food intake in one week after MSH analog treatment had been stopped for two weeks", "setting": "wildtype female mice; wildtypes, third week after termination", "value": 24.2, "unit": "g"}, {"measurement": "food intake, wildtype v. mutant", "setting": "POMC null mutant mice; [5]", "value": "↑"}, {"measurement": "weight change, wildtype v. mutant", "setting": "POMC null mutant mice; [5]", "value": "↓"}, {"measurement": "food intake, standard diet v. standard diet & MSH analog treatment", "setting": "POMC null mutant mice; [6]", "value": "decreases food intake and ↓"}, {"measurement": "weight change, standard diet v. standard diet & MSH analog treatment", "setting": "POMC null mutant mice; [6]", "value": "lose excess weight and ↓"}, {"measurement": "food intake, standard diet v. standard diet & MSH analog treatment", "setting": "wildtype mice", "value": "decreases food intake and ↓"}, {"measurement": "weight change, standard diet v. standard diet & MSH analog treatment", "setting": "wildtype mice", "value": "completely capable of maintaining their body weight constant and ←→"}, {"measurement": "total weight change over a period of 10 days", "setting": "obese lep^ob/ob mice", "value": "slowed weight gain by almost half"}, {"measurement": "supplementing the weight reducing effect of leptin", "setting": "ob/ob mutants [2]; MSH analog together with a leptin dose sufficient to induce normal MSH levels, ob/ob mice", "value": "inability of peripheral MSH analog to supplement the weight reducing effect"}, {"measurement": "effect on weight gain compared with effect on food intake", "setting": "ob/ob mutants [2]; [7]", "value": "greater on weight gain than on food intake"}, {"measurement": "weight gain", "setting": "ob/ob mutants [2]; [7]", "value": "effectively decreased weight gain; also recorded: decreases weight gain"}, {"measurement": "core temperature during exposure to 4° C.", "setting": "ob/ob mutants [3]", "value": "maintained their core temperature much better; also recorded: increases thermal homeostasis"}]}
{"molecule": "B1", "values": [{"measurement": "total weight change over a period of 10 days", "setting": "obese lep^ob/ob mice", "value": "little effect on preventing further weight gain"}, {"measurement": "circulating MSH levels", "setting": "[4]", "value": "approached those found in normal control mice; also recorded: induces almost normal levels of circulating MSH"}, {"measurement": "weight gain", "setting": "ob/ob mutants [2]; [7]", "value": "effectively decreased weight gain"}]}
